Measured values published in ChEMBL document CHEMBL1138078, “Antitumor activity of JS-K [O2-(2,4-dinitrophenyl) 1-[(4-ethoxycarbonyl)piperazin-1-yl]diazen-1-ium-1,2-diolate] and related O2-aryl diazeniumdiolates in vitro and in vivo” (J Med Chem, 2006).
pIC50: −log10 of the molar value.

Columns and labels:
HL-60 = test: Antiproliferative activity against human HL60 cell line; type: functional, cell-based
[1] = system: Panel NCI-51 (51 carcinoma cell lines); test: Antiproliferative activity against human NCI51 cell line; type: functional
JM1 = test: Antiproliferative activity against JM1 cell line implanted in Fischer rat liver assessed as decrease in tumor weight; type: functional, cell-based
CAKI-1 = test: Antiproliferative activity against human CAKI1 cell line at 100 uM; type: functional
786-0 = test: Antiproliferative activity against human 786-0 cell line at 100 uM; type: functional
TK-10 = test: Antiproliferative activity against human TK10 cell line at 100 uM; type: functional

In the case of `CCN(CC)/[N+]([O-])=N\Oc1ccnc(SC)n1`, the pIC50 (HL-60; Homo sapiens, HL-60) was less than 4.00.

`CN(C)/[N+]([O-])=N\Oc1cc(O)c([N+](=O)[O-])cc1[N+](=O)[O-]` gave a pIC50 (HL-60; Homo sapiens, HL-60) of less than 4.00.

`CCN(CC)/[N+]([O-])=N\Oc1ccccc1[N+](=O)[O-]` showed a pIC50 (HL-60; Homo sapiens, HL-60) of less than 4.00.

With `CC(C)Cc1ccc(C(C)C(=O)N2CCN(/[N+]([O-])=N\Oc3ccc([N+](=O)[O-])cc3[N+](=O)[O-])CC2)cc1` (stereo not given) the pIC50 (HL-60; Homo sapiens, HL-60) was 5.49.

In the case of `O=[N+]([O-])c1ccc(O)c([N+](=O)[O-])c1` [2,4-DINITROPHENOL], the pIC50 (HL-60; Homo sapiens, HL-60) was 4.01.

Compound `CC(C)(C)OC(=O)N1CCN(/[N+]([O-])=N\Oc2ccc([N+](=O)[O-])cc2[N+](=O)[O-])CC1` has a pIC50 (HL-60; Homo sapiens, HL-60) of 5.09.

`CCOC(=O)N1CCN(/[N+]([O-])=N/Oc2ccc([N+](=O)[O-])cc2[N+](=O)[O-])CC1` showed a GI50 [1] of 1.32 µM, a TGI [1] of 6.61 µM and a pIC50 (HL-60; Homo sapiens, HL-60) of 6.30. The Activity (JM1) was “Dose-dependent effect”.

For `CC(=O)Oc1ccccc1C(=O)N1CCN(/[N+]([O-])=N\Oc2ccc([N+](=O)[O-])cc2[N+](=O)[O-])CC1`, the pIC50 (HL-60; Homo sapiens, HL-60) was 5.43.

In the case of `CCOC(=O)N1CCN(/[N+]([O-])=N\O)CC1`, the pIC50 (HL-60; Homo sapiens, HL-60) was 5.40.

With `N[C@@H](CCC(=O)N[C@H](CSc1ccc([N+](=O)[O-])cc1[N+](=O)[O-])C(=O)NCC(=O)O)C(=O)O` the pIC50 (HL-60; Homo sapiens, HL-60) was 5.08.

Work on `CCOC(=O)N1CCN(/[N+]([O-])=N/Oc2cc(O/N=[N+](\[O-])N3CCN(C(=O)OC)CC3)c([N+](=O)[O-])cc2[N+](=O)[O-])CC1` yielded a pIC50 (HL-60; Homo sapiens, HL-60) of 6.10.

With `O=[N+]([O-])c1ccc(O/N=[N+](/[O-])N2CCN(c3ccccc3)CC2)c([N+](=O)[O-])c1` the pIC50 (HL-60; Homo sapiens, HL-60) was 5.82.

Work on `CN(C)/[N+]([O-])=N/Oc1cc(Nc2cccc(C(=O)O)c2)c([N+](=O)[O-])cc1[N+](=O)[O-]` yielded a pIC50 (HL-60; Homo sapiens, HL-60) of 5.00.

`CN(C)/[N+]([O-])=N\Oc1cc(Nc2ccc(C(=O)O)cc2)c([N+](=O)[O-])cc1[N+](=O)[O-]` showed a pIC50 (HL-60; Homo sapiens, HL-60) of 5.04.

Compound `O=[N+]([O-])c1ccc(O/N=[N+](/[O-])N2CCNCC2)c([N+](=O)[O-])c1` has a pIC50 (HL-60; Homo sapiens, HL-60) of 5.30.

With `CCOC(=O)N1CCNCC1` [N-(ETHOXYCARBONYL)PIPERAZINE] the pIC50 (HL-60; Homo sapiens, HL-60) was 5.07.

Work on `O=[N+]([O-])c1ccc(O/N=[N+](/[O-])N2CCN(c3ccccc3)CC2)nc1` yielded a pIC50 (HL-60; Homo sapiens, HL-60) of 5.10.

With `CCN(CC)C(=O)N1CCN(/[N+]([O-])=N\Oc2ccc([N+](=O)[O-])cc2[N+](=O)[O-])CC1` the pIC50 (HL-60; Homo sapiens, HL-60) was 5.14.

For `O=C(OCc1ccccc1)N1CCN(/[N+]([O-])=N\Oc2ccc([N+](=O)[O-])cc2[N+](=O)[O-])CC1`, the Activity (CAKI-1) was 100%, the GI50 [1] was 7.08 µM and the LC50 [1] was 77.6 µM. For the same compound, the TGI [1] was 30.9 µM, the Activity (786-0) was 100% and the pIC50 (HL-60; Homo sapiens, HL-60) was 4.77. For the same compound, the Activity (TK-10) was 100%.

For `CN(C)S(=O)(=O)N1CCN(/[N+]([O-])=N\Oc2ccc([N+](=O)[O-])cc2[N+](=O)[O-])CC1`, the pIC50 (HL-60; Homo sapiens, HL-60) was 5.28.

`O=[N+]([O-])c1ccc(O/N=[N+](\[O-])N2CCCC2)c([N+](=O)[O-])c1` showed a pIC50 (HL-60; Homo sapiens, HL-60) of 5.13.

`C1CNCCN1` [PIPERAZINE] was tested, and the pIC50 (HL-60; Homo sapiens, HL-60) was 4.08.

`CN(C)/[N+]([O-])=N\Oc1ccc([N+](=O)[O-])cc1[N+](=O)[O-]` showed a pIC50 (HL-60; Homo sapiens, HL-60) of 5.62.

`CN1CCN(/[N+]([O-])=N\Oc2ccc([N+](=O)[O-])cc2[N+](=O)[O-])CC1` showed a pIC50 (HL-60; Homo sapiens, HL-60) of 5.17.

Work on `O=[N+]([O-])c1ccc(O/N=[N+](\[O-])N2CCN(c3ncccn3)CC2)c([N+](=O)[O-])c1` yielded a pIC50 (HL-60; Homo sapiens, HL-60) of 5.44.

Work on `O=[N+]([O-])c1cc(C(F)(F)F)ccc1O/N=[N+](\[O-])N1CCN(c2ccccc2)CC1` yielded a pIC50 (HL-60; Homo sapiens, HL-60) of less than 4.00.

Compound `O=C(c1cccnc1)N1CCN(/[N+]([O-])=N\Oc2ccc([N+](=O)[O-])cc2[N+](=O)[O-])CC1` has a pIC50 (HL-60; Homo sapiens, HL-60) of 5.14.

For `O=C(ON1C(=O)CCC1=O)N1CCN(/[N+]([O-])=N\Oc2ccc([N+](=O)[O-])cc2[N+](=O)[O-])CC1`, the pIC50 (HL-60; Homo sapiens, HL-60) was 4.57.

In the case of `CCN(CC)/[N+]([O-])=N\Oc1ccc([N+](=O)[O-])cc1C(F)(F)F`, the pIC50 (HL-60; Homo sapiens, HL-60) was 4.02.

For `O=[N+]([O-])c1ccc(Cl)c([N+](=O)[O-])c1` [DINITROCHLOROBENZENE], the pIC50 (HL-60; hl-60) was 5.85.

Work on `CC(=O)N1CCN(/[N+]([O-])=N\Oc2ccc([N+](=O)[O-])cc2[N+](=O)[O-])CC1` yielded a pIC50 (HL-60; Homo sapiens, HL-60) of 5.41.

Work on `CCN(CC)/[N+]([O-])=N/Oc1cc(O/N=[N+](/[O-])N(CC)CC)c([N+](=O)[O-])cc1[N+](=O)[O-]` yielded a pIC50 (HL-60; Homo sapiens, HL-60) of 6.00.

Work on `COc1ccc(N(C)c2cc(O/N=[N+](/[O-])N(C)C)c([N+](=O)[O-])cc2[N+](=O)[O-])cc1` yielded a pIC50 (HL-60; Homo sapiens, HL-60) of less than 4.00.

With `NC(=O)C1CCCN(/[N+]([O-])=N/Oc2ccc([N+](=O)[O-])cc2[N+](=O)[O-])C1` (stereo not given) the pIC50 (HL-60; Homo sapiens, HL-60) was 5.36.

In the case of `CCOC(=O)N1CCN(/[N+]([O-])=N/Oc2cc(F)c([N+](=O)[O-])cc2[N+](=O)[O-])CC1`, the pIC50 (HL-60; Homo sapiens, HL-60) was 6.00.

For `CNc1ccc(C(=O)Oc2cc(O/N=[N+](/[O-])N(C)C)c([N+](=O)[O-])cc2[N+](=O)[O-])cc1`, the pIC50 (HL-60; Homo sapiens, HL-60) was 5.20.

In the case of `CCCCOC(=O)N1CCN(/[N+]([O-])=N\Oc2ccc([N+](=O)[O-])cc2[N+](=O)[O-])CC1`, the Activity (CAKI-1) was 100%, the GI50 [1] was 6.31 µM and the LC50 [1] was 63.1 µM. The TGI [1] was 23.4 µM, the Activity (786-0) was 100% and the pIC50 (HL-60; Homo sapiens, HL-60) was 5.46. It also gave a TGI (HL-60; Homo sapiens, HL-60) of 57.5 µM and an Activity (TK-10) of 100%.

Compound `CCOC(=O)N1CCN(/[N+]([O-])=N/Oc2ccnc(Cl)n2)CC1` has a pIC50 (HL-60; Homo sapiens, HL-60) of 4.15.

`CN(C)/[N+]([O-])=N\Oc1ccc([N+](=O)[O-])cn1` showed a pIC50 (HL-60; Homo sapiens, HL-60) of less than 4.00.

Compound `NC(=O)C1CCN(/[N+]([O-])=N/Oc2ccc([N+](=O)[O-])cc2[N+](=O)[O-])CC1` has a pIC50 (HL-60; Homo sapiens, HL-60) of 5.23.

With `CCN(CC)/[N+]([O-])=N\Oc1ccc([N+](=O)[O-])cc1` the pIC50 (HL-60; Homo sapiens, HL-60) was less than 4.00.

Compound `O=NO` [SODIUM NITRITE] has a pIC50 (HL-60; Homo sapiens, HL-60) of 4.03.

With `CCCOC(=O)N1CCN(/[N+]([O-])=N\Oc2ccc([N+](=O)[O-])cc2[N+](=O)[O-])CC1` the Activity (CAKI-1) was 100%, the GI50 [1] was 2.04 µM and the LC50 [1] was 40.7 µM. The TGI [1] was 10.2 µM, the Activity (786-0) was 100% and the pIC50 (HL-60; Homo sapiens, HL-60) was 5.43. The TGI (HL-60; Homo sapiens, HL-60) was 8.1 µM and the Activity (TK-10) was 100%.

`CCN(CC)/[N+]([O-])=N/Oc1ccc([N+](=O)[O-])cc1[N+](=O)[O-]` was tested, and the pIC50 (HL-60; Homo sapiens, HL-60) was 5.66.

With `CC(=O)NCC(=O)N1CCN(/[N+]([O-])=N\Oc2ccc([N+](=O)[O-])cc2[N+](=O)[O-])CC1` the pIC50 (HL-60; Homo sapiens, HL-60) was 5.06.

`CN(C)/[N+]([O-])=N\Oc1cc(F)c([N+](=O)[O-])cc1[N+](=O)[O-]` showed a pIC50 (HL-60; Homo sapiens, HL-60) of 5.46.

In the case of `CN(c1cccc(C(=O)O)c1)c1cc(O/N=[N+](/[O-])N(C)C)c([N+](=O)[O-])cc1[N+](=O)[O-]`, the pIC50 (HL-60; Homo sapiens, HL-60) was 4.92.
